Assay [1] deals with Cavia porcellus. The assay can be described thus: Antitussive activity in ip dosed Dunkin-Hartley guinea pig assessed as inhibition of citric acid-induced cough administered 30 mins before citric acid challenge. It counts as functional.
Assay [2] deals with Cavia porcellus. In words: Antitussive activity in Dunkin-Hartley guinea pig assessed as inhibition of citric acid-induced cough at 100 mg/kg, ip administered 30 mins before citric acid challenge. It counts as functional. The note with it: route intraperitoneal.

In general, ED50 refers to the dose at which the effect has come halfway, by size or by number of responders. Usually inhibition in vivo stands for the share of the control response that was lost under treatment. With `CC[C@H]1[C@@H]2c3ccc([C@@H]4C[C@H](C)C(=O)O4)n3CCC[C@H]2O[C@]12C=C(C)C(=O)O2` [BISDEHYDROSTEMONININE], in the assay with Cavia porcellus [1], the Activity entry was “Dose-dependent effect” and the median effective dose (ED50) came out at 188 µmol/kg. Also, in the assay with Cavia porcellus [2], the inhibition in vivo at 100 mg/kg was 90%.

Take `CC[C@@H]1[C@H]2CCCCN3[C@H]2[C@@H](C[C@H]3[C@@H]2C[C@H](C)C(=O)O2)[C@H]2[C@@H]1OC(=O)[C@H]2C` [NEOTUBEROSTEMONINE]: the median effective dose (ED50) in the assay with Cavia porcellus [1] was found to be 66 µmol/kg.
